The text below walks through data of patent US20240277795A1, “INHIBITORS OF CYSTEINE PROTEASES AND METHODS OF USE THEREOF” (Pardes Biosciences, Inc., priority 2021, published 2024).

A word on the IC50: it is the concentration that inhibits the measured activity by half.

Experiment [1] deals with SARS-COV2 Mpro (Severe acute respiratory syndrome coronavirus 2, UniProt P0DTD1). Put plainly: COVID-19 (nCoV-2019, SARS-CoV2) Mpro enzymatic assay. It is filed as biochemical. The settings on record: read-out: COVID-19 Mpro IC50. The procedure:
Compounds were assayed using standard methods to assess compound activity and IC50. As an exemplary for assessment of the SARS-COV2 Mpro, the C-His6-tagged Mpro (NC_045512) was cloned, expressed in E. coli and purified. The assay buffer contained 20 mM of Tris-HCl (pH 7.3), 100 mM of NaCl, 1 mM of EDTA, 5 mM of TCEP and 0.1% BSA. The final concentrations of the Mpro protein and substrate were 25 nM and 25 μM, respectively, in the Mpro enzymatic assay.
The compounds were added to an assay plate. For 100% inhibition control (HPE, hundred percent effect), 1 μM GC376 was added.
(§1) IC50 values of compounds were calculated with the GraphPad Prism software using the nonlinear regression model of log(inhibitor) vs. response—Variable slope (four parameters). The inhibition activity was calculated using the formula below, IC50 values is calculated using the Inhibition % data.
[formula] • #HEP: Hundred percent effect controls. […] Containing enzyme+substrate, no compound. • Sample: Compound activity testing wells. Containing compound+enzyme+substrate. • BG: Compound background control wells. Containing compound+substrate, no enzyme.

For experiment [2], the target named is 229E Mpro (Human coronavirus 229E, UniProt P0C6X1). The experiment can be described thus: 229E Mpro enzymatic assay. It is filed as biochemical, HCoV 229E. The procedure: (§2) Compounds were assayed using standard methods to assess compound activity and IC50. As an exemplary for assessment of the SARS-COV2 Mpro, the C-His6-tagged Mpro (NC_045512) was cloned, expressed in E. coli and purified. The assay buffer contained 20 mM of Tris-HCl (pH 7.3), 100 mM of NaCl, 1 mM of EDTA, 5 mM of TCEP and 0.1% BSA. The final concentrations of the Mpro protein and substrate were 25 nM and 25 μM, respectively, in the Mpro enzymatic assay. The Km of the Mpro substrate for the protease was 13.5 μM.
Sequence of 229E Mpro (P0C6X1 2966-3267): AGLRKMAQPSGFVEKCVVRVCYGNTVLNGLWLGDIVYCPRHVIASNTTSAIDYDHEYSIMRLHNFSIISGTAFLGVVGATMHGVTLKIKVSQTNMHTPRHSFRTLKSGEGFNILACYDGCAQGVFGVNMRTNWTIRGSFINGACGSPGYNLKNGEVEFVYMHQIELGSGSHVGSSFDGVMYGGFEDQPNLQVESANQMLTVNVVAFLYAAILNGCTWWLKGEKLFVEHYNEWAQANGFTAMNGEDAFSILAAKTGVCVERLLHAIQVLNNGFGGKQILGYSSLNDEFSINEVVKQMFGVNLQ
(§3) The compounds were added to an assay plate. For 100% inhibition control (HPE, hundred percent effect), 1 μM GC376 was added. For no inhibition control (ZPE, zero percent effect), no compound was added.
as §1
(§4) [formula] • #HEP: Hundred percent effect controls. Containing substrate+enzyme+1 μM GC376. • ZPE: Zero percent effective controls. Containing enzyme+substrate, no compound. • Sample: Compound activity testing wells. Containing compound+enzyme+substrate. • BG: Compound background control wells. Containing compound+substrate, no enzyme.

Experiment [3] concerns the target OC43 Mpro (Human coronavirus OC43, UniProt P0C6X6). Put plainly: OC43 Mpro enzymatic assay. It is filed as biochemical, HCoV OC43. The procedure:
as §2, §3, §1, §4

Structures are written as SMILES. Like-named read-outs stand apart in the source and are kept apart here.

Sequence of OC43 Mpro (P0C6X6 3247-3549): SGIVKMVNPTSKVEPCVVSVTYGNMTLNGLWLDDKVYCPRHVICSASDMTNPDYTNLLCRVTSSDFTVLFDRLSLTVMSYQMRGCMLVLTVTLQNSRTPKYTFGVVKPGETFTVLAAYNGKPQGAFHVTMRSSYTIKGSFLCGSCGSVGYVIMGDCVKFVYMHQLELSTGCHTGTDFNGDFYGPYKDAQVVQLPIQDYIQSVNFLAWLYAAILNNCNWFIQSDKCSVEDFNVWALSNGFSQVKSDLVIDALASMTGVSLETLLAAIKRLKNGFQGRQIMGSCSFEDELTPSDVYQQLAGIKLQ

Consider `C[C@@H](OC1(C#N)CC1)[C@H](NC(=O)C(F)(F)F)C(=O)N1C[C@H]2[C@@H]([C@H]1C(=O)N[C@H](C#N)C[C@@H]1CC3(CC3)NC1=O)C2(C)C` [Compound 335], for which the IC50 in experiment [1] (Table 5), in experiment [2] (Table 5) and in experiment [3] (Table 5) was less than 2000 nM each time.

In the case of `CC(C)(C)[C@H](N)C(=O)N1C[C@H]2[C@@H]([C@H]1C(=O)N[C@H](C#N)C[C@@H]1CC3(CC3)NC1=O)C2(C)C` [Compound 235, (1R,2S,5S)-3-((S)-2-amino-3,3-dimethylbutanoyl)-N—((S)-1-cyano-2-((R)-5-oxo-4-azaspiro[2.4]heptan-6-yl)ethyl)-6,6-dimethyl-3-azabicyclo[3.1.0]hexane-2-carboxamide], the IC50 in experiment [1] (Table 3), in experiment [2] (Table 3) and in experiment [3] (Table 3) was less than 2000 nM in each case.

Turning to `CC1(C)CCC(C[C@@H](C#N)NC(=O)[C@@H]2[C@@H]3[C@H](CN2C(=O)[C@@H](NC(=O)C(F)(F)F)C(C)(C)C)C3(C)C)C(=O)N1` (stereo partly drawn) [Compound 361, (1R,5S)—N-[(1S)-1-cyano-2-(6,6-dimethyl-2-oxo-3-piperidyl)ethyl]-3-[(2S)-3,3-dimethyl-2-[(2,2,2-trifluoroacetyl)amino]butanoyl]-6,6-dimethyl-3-azabicyclo[3.1.0]hexane-2-carboxamide], the IC50 in experiment [1] (Table 3) is less than 2000 nM; in experiment [2] (Table 3), 10000 to 30000 nM; in experiment [3] (Table 3) it was less than 2000 nM.

As for `CC(C)(C)[C@H](NC(=O)OC1CC(F)(F)C1(F)F)C(=O)N1C[C@H]2[C@@H]([C@H]1C(=O)N[C@H](C#N)C[C@@H]1CC3(CC3)NC1=O)C2(C)C` (single isomer, unassigned) [273 Isomer 1], the IC50 in experiment [1] (Table 3), in experiment [2] (Table 3) and in experiment [3] (Table 3) was less than 2000 nM in each case.

On to `CO[C@H](C)[C@H](NC(=O)C(F)(F)F)C(=O)N1C[C@H]2[C@@H]([C@H]1C(=O)N[C@H](C#N)C[C@@H]1CC3(CCC3)NC1=O)C2(C)C` [Compound 425, (1R,2S,5S)—N-[(1S)-1-cyano-2-[(7R)-6-oxo-5-azaspiro[3.4]octan-7-yl]ethyl]-3-[(2S,3R)-3-methoxy-2-[(2,2,2-trifluoroacetyl)amino]butanoyl]-6,6-dimethyl-3-azabicyclo[3.1.0]hexane-2-carboxamide], for which the IC50 in experiment [1] (Table 5), in experiment [2] (Table 5) and in experiment [3] (Table 5) was less than 2000 nM throughout.

As for `C[C@@H](OC1(C)CC1)[C@H](NC(=O)C(F)(F)F)C(=O)N1C[C@H]2[C@@H]([C@H]1C(=O)N[C@H](C#N)C[C@@H]1CC(C)(C)NC1=O)C2(C)C` (single isomer, unassigned) [Compound 299], the IC50 in experiment [1] (Table 3), in experiment [2] (Table 3), in experiment [2] (Table 5), in experiment [3] (Table 3) and in experiment [3] (Table 5) was less than 2000 nM throughout.

`C[C@@H](OC1CCC1)[C@H](NC(=O)C(F)(F)F)C(=O)N1C[C@H]2[C@@H]([C@H]1C(=O)N[C@H](C#N)C[C@@H]1CC3(CC3)NC1=O)C2(C)C` [Compound 327, (1R,2S,5S)—N-[(1S)-1-cyan-2-[(6R)-5-oxo-4-azaspiro[2.4]heptan-6-yl]ethyl]-3-[(2S,3R)-3-(cyclobutoxy)-2-[(2,2,2-trifluoroacetyl)amino]butanoyl]-6,6-dimethyl-3-azabicyclo[3.1.0]hexane-2-carboxamide]: the IC50 in experiment [1] (Table 5), in experiment [2] (Table 5) and in experiment [3] (Table 5) was less than 2000 nM each time.

Regarding `C[C@@H](OC(C)(C)C)[C@H](NC(=O)C(F)(F)F)C(=O)N1C[C@H]2[C@@H]([C@H]1C(=O)N[C@H](C#N)C[C@@H]1CCCNC1=O)C2(C)C` [Compound 431, (1R, 2S, 5S)-3-((2S, 3R)-3-(tert-butoxy)-2-(2,2,2-trifluoroacetamido)butanoyl)-N—((S)-1-cyano-2-((S)-2-oxopiperidin-3-yl)ethyl)-6,6-dimethyl-3-azabicyclo[3.1.0]hexane-2-carboxamide], the IC50 in experiment [1] (Table 5), in experiment [2] (Table 5) and in experiment [3] (Table 5) was less than 2000 nM in each case.

For `N#C[C@H](C[C@@H]1CCNC1=O)NC(=O)[C@H](CC1CC1)NC(=O)[C@H](Cc1ccc(F)cc1)NC(=O)c1cnccn1` [Compound 125], the results for the IC50 in experiment [1] (Table 3), in experiment [2] (Table 3) and in experiment [3] (Table 3) were 2000 to 10000 nM, less than 2000 nM and less than 2000 nM, respectively.

Regarding `C[C@@H](OC1CC1)[C@H](NC(=O)C(F)(F)F)C(=O)N1C[C@H]2[C@@H]([C@H]1C(=O)N[C@H](C#N)C[C@@H]1CC(C)(C)NC1=O)C2(C)C` (single isomer, unassigned) [Compound 298], the IC50 in experiment [1] (Table 5), in experiment [2] (Table 5) and in experiment [3] (Table 5) was less than 2000 nM in each case.

In the case of `CC1(C)[C@@H]2[C@@H](C(=O)N[C@H](C#N)C[C@@H]3CC4(CC4)NC3=O)N(C(=O)C(NC(=O)C(F)(F)F)C3CCC3)C[C@@H]21` (single isomer, unassigned) [372 Isomer 2], the IC50 in experiment [1] (Table 3), in experiment [2] (Table 3) and in experiment [3] (Table 3) was less than 2000 nM throughout.

For the compound `C[C@@H](OC1(C)CCC1)[C@H](NC(=O)C(F)(F)F)C(=O)N1C[C@H]2[C@@H]([C@H]1C(=O)N[C@H](C#N)C[C@@H]1CC(C)(C)NC1=O)C2(C)C` [Compound 308, (1R,2S,5S)—N-[(1S)-1-cyano-2-[(3R)-5,5-dimethyl-2-oxo-pyrrolidin-3-yl]ethyl]-6,6-dimethyl-3-[(2S,3R)-3-(1-methylcyclobutoxy)-2-[(2,2,2-trifluoroacetyl)amino]butanoyl]-3-azabicyclo[3.1.0]hexane-2-carboxamide], the IC50 in experiment [1] (Table 3), in experiment [2] (Table 3) and in experiment [3] (Table 3) was less than 2000 nM each time.

Turning to `C[C@@H](OC1(C)CC1)[C@H](NC(=O)C(F)(F)F)C(=O)N1C[C@H]2[C@@H](C1C(=O)N[C@H](C#N)C[C@@H]1CC(C)(C)NC1=O)C2(C)C` (single isomer, unassigned) [Compound 299a], the IC50 in experiment [1] (Table 5), in experiment [2] (Table 5) and in experiment [3] (Table 5) was less than 2000 nM in each case.

In the case of `C[C@@H](OC1CCC1)[C@H](NC(=O)C(F)(F)F)C(=O)N1C[C@H]2[C@@H]([C@H]1C(=O)N[C@H](C#N)C[C@@H]1CC(C)(C)NC1=O)C2(C)C` [Compound 307, (1R,2S,5S)—N-[(1S)-1-cyano-2-[(3R)-5,5-dimethyl-2-oxo-pyrrolidin-3-yl]ethyl]-3-[(2S,3R)-3-(cyclobutoxy)-2-[(2,2,2-trifluoroacetyl)amino]butanoyl]-6,6-dimethyl-3-azabicyclo[3.1.0]hexane-2-carboxamide], the IC50 in experiment [1] (Table 3), in experiment [2] (Table 3) and in experiment [3] (Table 3) was less than 2000 nM throughout.

Take `C[C@H](OC(C)(C)C)[C@H](NC(=O)C(F)(F)F)C(=O)N1C[C@H]2[C@@H]([C@H]1C(=O)N[C@H](C#N)C[C@@H]1CC3(CC3)NC1=O)C2(C)C` [Compound 138, (1R,2S,5S)-3-[(2S,3S)-3-tert-butoxy-2-[(2,2,2-trifluoroacetyl)amino]butanoyl]-N-[(1S)-1-cyano-2-[(6R)-5-oxo-4-azaspiro[2.4]heptan-6-yl]ethyl]-6,6-dimethyl-3-azabicyclo[3.1.0]hexane-2-carboxamide]: the IC50 in experiment [1] (Table 5), in experiment [2] (Table 5) and in experiment [3] (Table 5) was less than 2000 nM each time.

Turning to `C[C@@H](OC1CC(F)(F)C1)[C@H](NC(=O)C(F)(F)F)C(=O)N1C[C@H]2[C@@H]([C@H]1C(=O)N[C@H](C#N)C[C@@H]1CC(C)(C)NC1=O)C2(C)C` [Compound 330, (1R,2S,5S)—N-[(1S)-1-cyano-2-[(3R)-5,5-dimethyl-2-oxo-pyrrolidin-3-yl]ethyl]-3-[(2S,3R)-3-(3,3-difluorocyclobutoxy)-2-[(2,2,2-trifluoroacetyl)amino]butanoyl]-6,6-dimethyl-3-azabicyclo[3.1.0]hexane-2-carboxamide], the IC50 in experiment [1] (Table 3), in experiment [2] (Table 3) and in experiment [3] (Table 3) was less than 2000 nM in each case.

Regarding `CN(C(=O)[C@@H](NC(=O)c1cnccn1)C(C)(C)C)[C@@H](CC1CC1)C(=O)N[C@H](C#N)C[C@@H]1CCCNC1=O` [Compound 102, N-[(1S)-1-[[(1S)-2-[[(1S)-1-cyano-2-[(3S)-2-oxo-3-piperidyl]ethyl]amino]-1-(cyclopropylmethyl)-2-oxo-ethyl]-methyl-carbamoyl]-2,2-dimethyl-propyl]pyrazine-2-carboxamide], the IC50 in experiment [1] (Table 3) is more than 30000 nM; in experiment [2] (Table 3), 2000 to 10000 nM; in experiment [3] (Table 3), 10000 to 30000 nM.
